Source: PMC11539218 (Antimicrobial Agents and Chemotherapy, 2024)

How the values were obtained:
[1] = test system: L. (L.) infantum promastigotes; assay: Adenosine triphosphate levels (luciferase bioluminescence); type: cell-based, Leishmania (L.) infantum; details: 169.2 µM; 2 and 4 h; vs untreated parasites
Method: Promastigotes (2 × 10^6/well) were treated with compound 1 (169.2 µM) for 2 and 4 h, at 24°C. Subsequently, the parasites were lysed with Triton X-100 (0.5%) and mixed with ATP Determination Kit standard reaction buffer (1 mM DTT, 0.5 mM luciferin, and 1.25 µg/mL luciferase), according to the manufacturer’s instructions. […] CCCP (10 µM) was employed as positive control and untreated parasites as negative control.

[2] = test system: Peritoneal macrophages infected with L. (L.) infantum; assay: Cytokines in infected macrophages (ELISA); type: cell-based, BALB/c mice; details: 48 and 72 h
Method: L. (L.) infantum (MHOM/BR/1972/LD) promastigotes were maintained in M199 medium supplemented with 10% FBS and 0.25% hemin, pH 7.2 at 24°C. Amastigotes were isolated from golden hamsters (M. auratus) by differential centrifugation of infected spleens and the parasite’s number was determined according to Stauber ([14]). Peritoneal macrophages were obtained from the peritoneal cavity of BALB/c mice and maintained in RPMI-1640 medium supplemented with 10% FBS, pH 7.2 at 37°C.
Peritoneal macrophages (1 × 10^6/well) were infected with L. (L.) infantum […] (10:1 amastigotes/macrophage) for 24 h, at 37°C with 5% CO2. Subsequently, compound 1 (10 and 60 µM) was added and the incubation followed the same conditions described above. Cell supernatants were collected after 48 and 72 h and the cytokines (IL-4, IL-10, IL-12, and INF-γ) were measured using the BD OptEIA Mouse ELISA set kits, according to the manufacturer’s instructions. Concanavalin A (5 µg/mL) was employed as positive control and untreated cells as negative control.

[3] = test system: L. (L.) infantum promastigotes; assay: Intracellular Ca2+ (Fluo-4 AM); type: cell-based, Leishmania (L.) infantum; details: 169.2 µM, from 20 min up to 4 h, vs untreated
Method: Promastigotes (2 × 10^6/well) were pretreated with Fluo-4 AM (5 µM) in PBS, for 1 h at 24°C. Then, parasites were treated with compound 1 (169.2 µM). Fluorescence was measured every 20 min up to 4 h in a spectrofluorometer, with excitation and emission wavelengths of 485 nm and 535 nm, respectively ([21]). Triton X-100 0.5% (vol/vol) was employed as positive control and untreated parasites as negative control.

In the case of `C=CCc1cc(OC)c(OCc2ccc(OC)cc2)c(Oc2ccc(CN3CCOCC3)cc2OC)c1` [compound 1, 4-(4-(5-allyl-3-methoxy-2-((4-methoxybenzyl)oxy)phenoxy)-3-methoxybenzyl)morpholine], the ATP concentration [1] is reported as “significant reduction”, the IL-10 levels ([2]; 10 and 60 µM, vs untreated control) is reported as “reduction” and the IL-4 levels ([2]; only at 60 µM) is reported as “significantly reduced levels”. The IL-12 levels ([2]; only at 60 µM) was “significantly reduced levels”, the INF-γ levels ([2]; only at 60 µM) was “significantly reduced levels” and the “intracellular Ca2+ level” value [3] was “fast and increased Ca^2+ level”.
